Source: BindingDB's records for patent US20240116948 (Chiesi Farmaceutici, 2024)

Biological target: T1, TGF-beta receptor type-1 (Homo sapiens, UniProt P36897)
T1 sequence (P36897 whole entry): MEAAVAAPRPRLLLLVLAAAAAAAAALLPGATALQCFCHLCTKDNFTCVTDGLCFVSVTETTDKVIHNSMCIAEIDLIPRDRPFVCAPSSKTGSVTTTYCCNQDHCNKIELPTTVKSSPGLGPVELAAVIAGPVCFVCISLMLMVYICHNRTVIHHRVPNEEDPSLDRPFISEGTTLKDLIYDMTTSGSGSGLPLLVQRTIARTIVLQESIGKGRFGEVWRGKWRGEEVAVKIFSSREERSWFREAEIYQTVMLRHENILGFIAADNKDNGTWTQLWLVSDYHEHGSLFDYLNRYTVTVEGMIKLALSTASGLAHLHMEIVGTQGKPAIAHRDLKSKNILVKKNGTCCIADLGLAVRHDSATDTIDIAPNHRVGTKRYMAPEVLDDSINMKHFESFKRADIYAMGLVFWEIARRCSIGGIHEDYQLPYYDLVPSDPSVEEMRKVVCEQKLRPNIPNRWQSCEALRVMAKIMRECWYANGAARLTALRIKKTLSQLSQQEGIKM
Assay: In Vitro Assay
Experimental: The enzymatic activity of compounds of the present invention was monitored measuring the formation of ADP using the ADP-GLO Kinases assay. Following the incubation of the purified enzyme, a substrate and ATP, the produced ADP was converted into ATP, which in turn was converted into light by Ultra-Glo Luciferase. The luminescent signal positively correlated with ADP amount and kinase activity. Briefly, the kinase reaction was performed by incubating 2.6 nM of the purified, commercially available human ALK5 (recombinant TGF 31 N-term GST-tagged, 80-end), a final concentration of TGFβ1 peptide 94.5 μM (Promega, T36-58) and ultra-pure ATP (Promega V915B). The ATP concentration was set at the Km value (concentration of substrate which permits the enzyme to achieve half maximal velocity (Vmax)) of ALK5 (5 μM). All reactions/incubations were performed at 25° C. Compound and ALK5 kinase were mixed and incubated for 15 mins. Reactions were initiated by addition of ATP at a final concentration in the assay of […]. After an incubation of 150 min, the reaction was stopped, and ADP production detected with ADP-Glo kit according to manufacturer's indications. The assay was performed in 384-well format and was validated using a selection of reference compounds that was tested in 11 point concentration-response curve.

IC50, < 1 nM:
CN(C)CCC(=O)Nc1cncc(-c2cc(-c3cc(Cl)ccc3F)nc3c2OCCN3)c1 [US20240116948, Example 8]
O=C(CCN1CCCC1)Nc1cncc(-c2cc(-c3cc(Cl)ccc3F)nc3c2OCCN3)c1 [US20240116948, Example 12]
CN(C)CCCOc1cncc(-c2cc(-c3cc(Cl)ccc3F)nc3c2OCCN3)c1 [US20240116948, Example 27]
CNCCCC(=O)Nc1cncc(-c2cc(-c3cc(Cl)ccc3F)nc3c2OCCN3)c1 [US20240116948, Example 31]
CN1CCC(Oc2cncc(-c3cc(-c4cc(Cl)ccc4F)nc4c3OCCN4)c2)CC1 [US20240116948, Example 41]
CN(CCO)CCC(=O)Nc1cncc(-c2cc(-c3cc(Cl)ccc3F)nc3c2OCCN3)c1 [US20240116948, Example 44]
